Measured values reported in US12275733B2, “Substituted pyrido[3,4-b]indoles for the treatment of cartilage disorders” (Sanofi, priority 2016, dated 2025).

Test system: ATDC5 cells
Test: Chondrogenesis activity assay in ATDC5 cells (collagen type II induction, immunofluorescence)
Format: cell-based, mouse
Conditions: Mus musculus; for EC50: collagen type II induction in ATDC5 cells, concentration reaching 50% of maximum induction; for Emax: maximum percent induction of collagen type II relative to internal reference compound at 10 μM, ATDC5 cells
Description: A) Chondrogenesis Activity Assay in ATDC5 Cells
The chondrogenic potential of the compounds of the invention was determined using clonal mouse chondrogenic ATDC5 cells (T. Atsumi et al., Cell Differ. Dev. 1990, 30, 109-116). ATDC5 cells are derived from mouse embryonic AT805 teratocarcinoma cells and are used frequently to study the multistep chondrogenic differentiation process from precursor cells into chondrocytes (C. Shukunami et al., Exp. Cell Res. 1998, 241, 1-11; H. Aklyami et al., J. Bone Miner. Res. 1996, 11, 22-28; H. Akiyami et al., Biochem. Biophys. Res. Commun. 1997, 235, 142-147; C. Shukunami et al., J. Cell Biol. 1996, 133, 457-468; C. Shukunami et al., J. Bone Miner. Res. 1997, 12, 1174-1188). Undifferentiated ATDC5 cells grow in vitro until confluence, showing a fibroblast-like morphology. In the presence of insulin, cells undergo transient condensation and form numerous nodular structures (cartilage nodules). The cartilagenous nature of these nodules was shown by Alcian Blue staining as evidence of the production of proteoglycan (aggrecan) and collagen type II expression (by expression analysis), both molecular markers of chondrocytes (C. Shukunami et al., J. Cell Biol. 1996, 133, 457-468).
Chondrogenic differentiation of ATDC5 cells into chondrocytes by the compounds of the invention was determined by measuring the induction of type II collagen protein as a marker of chondrocytes, a structural component of the extracellular matrix which constitutes more than 80% of cartilage mass (D. R. Eyre, Clin. Orthop. Relat. Res. 2004, 427 Suppl, S118-S122). ATDC5 cells were obtained from RIKEN and cultured as monolayer in basal culture medium (Dulbecco's Modified Eagle Medium/Nutrient Mixture F-12 (DMEM/F12, Invitrogen, #31331-093) supplemented with 10 μg/ml Transferrin (Roche, #10652 202001), 3×10E−8 M sodium seienite (Sigma, #S-5261) and 5% Fetal Calf Serum (FCS Gold, PAA, #A15-251)), at 37° C., and 5% CO2 in plastic flasks of 75 cm^2 or 300 cm^2 subconfluently for propagation. ATDC5 cells were harvested and resuspended in differentiation culture medium that consisted of basal culture medium complemented with 10 μg/ml insulin (Sigma, #19278), to initiate chondrogenic differentiation. For studying the effect of test compounds, the ATDC5 cells were plated in 96-well plates (3.0×10E4 cells per well in 200 μl of differentiation culture medium). Test compounds dissolved in DMSO were added to yield increasing compound concentrations, typically from 40 nM to 10 μM, and a final DMSO concentration of 0.1%. On each 96-well plate, control wells containing no test compound but the same concentration of DMSO, i.e. untreated cells, were included and used as reference for the determination of the effect of the test compounds on the cells, and wells containing an internal reference compound at a concentration of 10 μM were included and used as positive control and for standardizing the results. Cells in the wells were incubated for 4 days at 37° C., and 5% CO2, followed by quantification of intracellular collagen type II.
Quantification of collagen type II in the ATDC5-cells was done by immunofluorescence staining of collagen type II, and fluorescence intensity was measured using a cellular high content imaging system (ImageXpress, Molecular Device). For immunofluorescence staining of intracellular collagen, medium was removed after compound incubation and cells were fixed with 200 μl/well methanol/water (95%/5%). Cells were permeabilized in 200 μl/well phosphate-buffered saline (PBS) containing 0.2% Triton X100 for 15 min and, after removal of the solution, blocked for 30 min with 200 μl/well PBS/0.2% Triton X100 containing 1% bovine serum albumin (BSA) to avoid unspecific binding. After the blocking step, the solution was removed and collagen type II staining solution was added. […]

Structure (SMILES)	EC50 [nM]	Emax [%]
CCn1c2cnccc2c2cc(Cl)cc(-c3cccnc3)c21 [Example 1, 6-Chloro-9-ethyl-8-pyridin-3-yl-9H-pyrido[3,4-b]indole]	1700	< 20
CC#CCn1c2cnccc2c2cc(Cl)cc(-c3ccc(Cl)nc3Cl)c21 [Example 3, 9-(But-2-ynyl)-6-chloro-8-(2,6-dichloropyridin-3-yl)-9H-pyrido[3,4-b]indole]	> 10000	20 to 50
N#CCn1c2cnccc2c2cc(Cl)cc(-c3ccc(Cl)nc3Cl)c21 [Example 4, 2-(6-Chloro-8-(2,6-dichloropyridin-3-yl)-9H-pyrido[3,4-b]indol-9-yl)acetonitrile]	830	> 80
CCn1c2c(-c3ccn(Cc4cccnc4C)n3)cc(Cl)cc2c2ccnc(C)c21 [Example 6, 6-Chloro-9-ethyl-1-methyl-8-[1-(2-methyl-pyridin-3-ylmethyl)-1H-pyrazol-3-yl]-9H-pyrido[3,4-b]indole]	2200	50 to 80
CCn1c2c(-c3ccnn3Cc3cccnc3C)cc(Cl)cc2c2ccnc(C)c21 [Example 7, 6-Chloro-9-ethyl-1-methyl-8-[2-(2-methyl-pyridin-3-ylmethyl)-2H-pyrazol-3-yl]-9H-pyrido[3,4-b]indole]	> 3300	< 20
CCn1c2c(-c3cc(C)nn3C)cc(Cl)cc2c2ccnc(C)c21 [Example 9, 6-Chloro-8-(2,5-dimethyl-2H-pyrazol-3-yl)-9-ethyl-1-methyl-9H-pyrido[3,4-b]indole]	1400	> 80
CC(C)(C)OC(=O)n1cc(-c2cc(Cl)cc3c4ccncc4n(CC(F)(F)F)c23)cn1 [Example 12, tert-Butyl 4-(6-chloro-9-(2,2,2-trifluoroethyl)-9H-pyrido[3,4-b]indol-8-yl)-1H-pyrazole-1-carboxylate]	> 10000	20 to 50
COc1ccc(-c2cc(C)cc3c2[nH]c2c(C)nccc23)cc1 [Example 14, 8-(4-Methoxy-phenyl)-1,6-dimethyl-9H-pyrido[3,4-b]indole]	860	> 80
CCn1c2c(-c3cnn(C)c3)cc(C)cc2c2ccnc(C)c21 [Example 15, 9-Ethyl-1,6-dimethyl-8-(1-methyl-1H-pyrazol-4-yl)-9H-pyrido[3,4-b]indole]	1000	50 to 80
Cc1cc2c([nH]c3c(-c4ccc(OCCn5cccn5)cc4)cc(Br)cc32)c(C)n1 [Example 16, 6-Bromo-1,3-dimethyl-8-[4-(2-pyrazol-1-yl-ethoxy)-phenyl]-9H-pyrido[3,4-b]indole]	2800	50 to 80
CCn1c2c(-c3ccc(OC)c(N)n3)cc(Cl)cc2c2ccnc(C)c21 [Example 17, 6-(6-Chloro-9-ethyl-1-methyl-9H-pyrido[3,4-b]indol-8-yl)-3-methoxy-pyridin-2-ylamine]	3600	> 80
CCn1c2c(-c3cc(-c4ccccc4)no3)cc(Cl)cc2c2ccnc(C)c21 [Example 18, 6-Chloro-9-ethyl-1-methyl-8-[3-phenyl-isoxazol-5-yl)-9H-pyrido[3,4-b]indole]	1000	> 80
CCn1c2c(-c3ccn(C)n3)cc(Cl)cc2c2ccnc(C)c21 [Example 20, 6-Chloro-9-ethyl-1-methyl-8-(1-methyl-1H-pyrazol-3-yl)-9H-pyrido[3,4-b]indole]	3900	50 to 80
Cc1nccc2c1[nH]c1c(-c3ccc4c(c3)CC(C)O4)cc(Cl)cc12 (centres unmarked) [Example 23, 6-Chloro-1-methyl-8-(2-methyl-2,3-dihydro-benzofuran-5-yl)-9H-pyrido[3,4-b]indole]	1600	50 to 80
Cc1nccc2c1[nH]c1c(-c3ccc(C(O)c4ccccc4)cc3)cc(Cl)cc12 (centres unmarked) [Example 24, [4-(6-Chloro-1-methyl-9H-pyrido[3,4-b]indol-8-yl)-phenyl]-phenyl-methanol]	2000	50 to 80
Cc1nccc2c3cc(Cl)cc(-c4cnn(C)c4)c3n(C)c12 [Example 25, 6-Chloro-1,9-dimethyl-8-(1-methyl-1H-pyrazol-4-yl)-9H-pyrido[3,4-b]indole]	170	> 80
CCn1c2c(-c3ccc(OCCN(C(C)C)C(C)C)cc3)cc(Cl)cc2c2ccnc(C)c21 [Example 26, (2-[4-(6-Chloro-9-ethyl-1-methyl-9H-pyrido[3,4-b]indol-8-yl)-phenoxy]-ethyl)-diisopropyl-amine]	530	50 to 80
CCn1c2c(-c3ccc(OCCN4CCOCC4)cc3)cc(Cl)cc2c2ccnc(C)c21 [Example 28, 6-Chloro-9-ethyl-1-methyl-8-[4-(2-morpholin-4-yl-ethoxy)-phenyl]-9H-pyrido[3,4-b]indole]	190	> 80
CCn1c2c(-c3ccc(CN4CCOCC4)cc3)cc(Cl)cc2c2ccnc(C)c21 [Example 30, 6-Chloro-9-ethyl-1-methyl-8-(4-morpholin-4-ylmethyl-phenyl)-9H-pyrido[3,4-b]indole]	270	> 80
Cc1nccc2c1[nH]c1c(-c3ccc(C=O)cc3)cc(Cl)cc12 [Example 31, 4-(6-Chloro-1-methyl-9H-pyrido[3,4-b]indol-8-yl)-benzaldehyde]	250	> 80
Cc1nccc2c1[nH]c1c(-c3ccc(C(O)c4ccccn4)cc3)cc(Cl)cc12 (centres unmarked) [Example 32, [4-(6-Chloro-1-methyl-9H-pyrido[3,4-b]indol-8-yl)-phenyl]-pyridin-2-yl-methanol]	370	50 to 80
COc1ccc(-c2cc(C(=O)O)cc3c2[nH]c2c(C)nccc23)cc1 [Example 35, 8-(4-Methoxy-phenyl)-1-methyl-9H-pyrido[3,4-b]indole-6-carboxylic acid]	3100	> 80
COc1ccc(-c2cc(C(N)=O)cc3c2[nH]c2c(C)nccc23)cc1 [Example 36, 8-(4-Methoxy-phenyl)-1-methyl-9H-pyrido[3,4-b]indole-6-carboxamide]	100	> 80
CCn1c2c(-c3cnn(Cc4ccc5ccccc5n4)c3)cc(Br)cc2c2ccnc(C)c21 [Example 38, 6-Bromo-9-ethyl-1-methyl-8-(1-quinolin-2-ylmethyl-1H-pyrazol-4-yl)-9H-pyrido[3,4-b]indole]	2600	50 to 80
Cc1nccc2c1[nH]c1c(-c3ccc(OCC4COCCO4)cc3)cc(Cl)cc12 (centres unmarked) [Example 40, 6-Chloro-8-[4-([1,4]dioxan-2-ylmethoxy)-phenyl]-1-methyl-9H-pyrido[3,4-b]indole]	160	> 80
Cc1nccc2c1[nH]c1c(-c3ccc(OCc4ncc5ccccc5n4)cc3)cc(Cl)cc12 [Example 41, 6-Chloro-1-methyl-8-[4-(quinazolin-2-ylmethoxy)-phenyl]-9H-pyrido[3,4-b]indole]	240	50 to 80
Cc1nccc2c1[nH]c1c(-c3ccc(OCCn4cc(Br)cn4)cc3)cc(Cl)cc12 [Example 42, 8-(4-[2-(4-Bromo-pyrazol-1-yl)-ethoxy]-phenyl)-6-chloro-1-methyl-9H-pyrido[3,4-b]indole]	510	50 to 80
Cc1nc(Br)cc2c1[nH]c1c(-c3ccc(OCCn4cc(Br)cn4)cc3)cc(Cl)cc12 [Example 43, 3-Bromo-8-(4-[2-(4-bromo-pyrazol-1-yl)-ethoxy]-phenyl)-6-chloro-1-methyl-9H-pyrido[3,4-b]indole]	> 6600	< 20
